From patent US10334850B2, “Recombinant microorganism expressing avermectin analogue and use thereof” (Zhejiang Hisun Pharmaceutical Co., Ltd., priority 2014, dated 2019)

Test system: pine wood nematodes
Assay: Toxicity assay against pine wood nematodes (immersion method)
Type: in vivo
Conditions: 24 h
Method: 3. Activity assay of tenvermectins against pine wood nematodes: The indoor activities of sixteen-membered macrolide compounds such as tenvermectins, avermectins, ivermectin, milbemycins, emamectin benzoate were assayed, wherein pine wood nematodes were used as the test insects. The aim was to compare the difference in activities of such medicaments on pine wood nematodes.
Test medicaments: five kinds of medicaments, i.e. 0.5% avermectins emulsifiable concentrate, 0.5% tenvermectins emulsifiable concentrate, 0.5% ivermectin emulsifiable concentrate, 2% milbemycins emulsifiable concentrate, 2.5% emamectin benzoate microemulsion.
Test Method: The immersion method was adopted. Five mass concentrations 2, 5, 10, 20, 50 mg/L were set for each of the medicaments, and each concentration was repeated for three times. The experimental results were subjected to statistics after 24 h (see Table 5).

Substance	Mortality at different concentrations (mg/L, %) (2 mg/L) [%]	Mortality at different concentrations (mg/L, %) (5 mg/L) [%]	Mortality at different concentrations (mg/L, %) (10 mg/L) [%]	Mortality at different concentrations (mg/L, %) (20 mg/L) [%]	Mortality at different concentrations (mg/L, %) (50 mg/L) [%]
emamectin benzoate	48.27	61.68	67.44	75	86.67
ivermectin	18.52	42.55	57.47	58.33	78.94
